The source of these data is patent publication EP0745083B1, “2-HETEROARYL-5,11-DIHYDRO-6H-DIPYRIDO [3,2-b:2',3'-e][1,4]DIAZEPINES AND THEIR USE IN THE PREVENTION OR TREATMENT OF HIV INFECTION” (BOEHRINGER INGELHEIM PHARMACEUTICALS INC., priority 1994, dated 1995).

One data set deals with T1, HIV-1 RT Y181C (Human immunodeficiency virus type 1 group M subtype B, UniProt P03367, Y780C).
T1 construct: Utilization of mutant RT eraymes (Y181C and Y181L, prepared by site-directed mutagenesis); made in house
The experiment in a line: Reverse Transcriptase (RT) Assay, Y181C mutant enzyme. The class given is biochemical, Human Immunodeficiency Virus (HIV-1). The conditions noted are these: 1 µM compound; for inhibition at 1 µM: read-out: Reverse Transciptase Assay % inhibition (1 µM) Y181C. From the text:
(§1) Among the enzymes for which Human Immunodeficiency Virus (HIV-1) encodes is a reverse transcriptase (1), so-named because it transcribes a DNA copy from an RNA template. This activity can be quantitatively measured in a cell-free enzyme assay, which has been previously described (2), and is based upon the observation that reverse transcriptase is able to use a synthetic template [poly r(C) primed with oligo d(G)] to transcribe a radio-labelled, acid-precipitable DNA strand utilizing ^3H-dGTP as a substrate. The assay described below utilizes the wild type (WT) enzyme, which is the predominant form of the enzyme observed in patients infected with HIV-1. Utilization of mutant RT eraymes (Y181C and Y181L, prepared by site-directed mutagenesis in which the tyrosine residue at codon 181 has been replaced by a cysteine or a leucine residue, respectively) and analogous assay conditions allows compounds to be evaluated for their effectiveness at inhibiting these mutant enzymes.
(§2) The 2X concentrated stock reaction mixture is aliquoted and stored at -20°C. The mixture is stable and thawed for use in each assay. This enzyme assay has been adapted to a 96 well microtiter plate system, and has been previously described (6). Tris buffer (50 mM, pH 7.4), vehicle (solvent diluted to match the compound dilution), or compounds in vehicle are dispensed into 96-well microtiter plates (10µL/well; 3 wells/ compound). The HIV-1 RT enzyme is thawed, diluted in 50mM Tris pH 7.4 so that fifteen µL of diluted enzyme contain 0.001 Unit (one unit is that amount of enzyme to transform 1 micromole of substrate per minute at 25°C), and fifteen µL are dispensed per well. Twenty µL of 0.12-0.5M EDTA are added to the first three wells of the microtiter plate. EDTA chelates the Mg^++ present and prevents reverse transcription. This group serves as background polymerization which is subtracted from all other groups. Twenty-five ul of the 2X reaction mixture are added to all wells and the assay is allowed to incubate at room temperature for 60 minutes. The assay is terminated by precipitating the DNA in each well with 50µL of 10% trichloracetic acid (TCA) (10% w/v) in sodium pyrophosphate (1% w/v). The microtiter plate is incubated for 15 minutes at 4°C and the precipitate is fixed onto #30 glass fiber paper (Schleicher & Schuell) using a Skatron semi-automatic harvester. The filters are then washed with additional TCA (5%) containing sodium pyrophosphate (1%), rinsed with aqueous ethanol (70%), dried, and transferred to scintillation vials (6). Each vial receives 2 mL of scintillation cocktail and is counted in a Beckman beta counter. The calculation for percent inhibition is as follows: % inhibition =(CPM Mean Test Value - CPM Mean Control Value X100)/(CPM Mean Control Value) [formula]

Another data set deals with T2, HIV-1 RT Y188L (Human immunodeficiency virus type 1 group M subtype B, UniProt P03367, Y787L).
T2 construct: effective against the reverse transcriptase of many mutant viruses; made in house
In words: Reverse Transcriptase (RT) Assay, Y188L mutant enzyme. The class given is biochemical, Human Immunodeficiency Virus (HIV-1). The conditions noted are these: 1 µM compound.

Data set [1] addresses T3, HIV-1 RT wild type (WT) enzyme (Human immunodeficiency virus type 1 group M subtype B, UniProt P03367).
T3 construct: Reverse transcriptase enzyme from the LAV strain of Human Immunodeficiency Virus (HIV-1) (1) was isolated from the bacterial strain JM109; made in house; host or cells: E. coli JM109 (clone pBRTprt1+ in vector pIBI21, lac promoter)
The experiment in a line: Reverse Transcriptase (RT) Assay, wild type enzyme (RNA-dependent DNA polymerase activity). The class given is biochemical, Human Immunodeficiency Virus (HIV-1). The conditions noted are these: 1 µM compound; for inhibition at 1 µM: read-out: Reverse Transciptase Assay % inhibition (1 µM) WT.
From the text: Utilizing the Reverse Transcriptase (RT) Assay described below, compounds can be tested for their ability to inhibit the RNA-dependent DNA polymerase activity of HIV-1 RT. Certain specific compounds described in the Examples which appear below, were so tested.
as §1
Reverse transcriptase enzyme from the LAV strain of Human Immunodeficiency Virus (HIV-1) (1) was isolated from the bacterial strain JM109 (3) expressing the DNA clone pBRTprt1+ (2) which is under the control of the lac promotor in the expression vector pIBI21 (4). An overnight culture grown in 2XYT medium (37°C, 225 rpm) (5) supplemented with 100 µg/mL ampicillin for positive selection is inoculated at a 1:40 dilution into M9 medium supplemented with 10µg/mL thiamine, 0.5% casamino acids, and 50 µg/mL ampicillin (5). The culture is incubated (37°C, 225 rpm) until it reaches an OD540 of 0.3-0.4. At that time the repressor inhibitor IPTG (isopropyl β-D-thiogalactopyranoside) is added to 0.5mM, and the mixture is incubated for 2 additional hours. Bacteria are pelleted, resuspended in a 50mM Tris, 0.6mM EDTA, 0.375M NaCl buffer and digested by the addition of lysozyme (1mg/mL) for 30 minutes on ice. The cells are lysed by the addition of 0.2% NP-40 and brought to 1M NaCl.
After removal of the insoluble debris by centrifugation, the protein is precipitated by the addition of 3 volumes of saturated aqueous ammonium sulfate. The enzyme is pelleted, resuspended in RT buffer (50mM Tris pH 7.5, 1mM EDTA, 5mM DTT, 0.1% NP-40, 0.1M NaCI, and 50% glycerol), and stored at -70°C for further use.
as §2, with “The filters are then washed with additional TCA (5%) containing sodium pyrophosphate (1%), rinsed with aqueous ethanol (70%), dried, and transferred to scintillation vials (6). Each vial receives 2 mL of scintillation cocktail and is counted in a Beckman beta counter. The calculation for percent inhibition is as follows: % inhibition =(CPM Mean Test Value - CPM Mean Control Value X100)/(CPM Mean Control Value) [formula]” left out

Another data set is described as follows: MTT assay (cytotoxicity). The class given is cell-based. To be noted: human; H9 cells; five days incubation. How it is done: In order to roughly assess the cytotoxicity of the compounds provided by the invention, several such compounds were tested in the MTT Assay described below. Compounds having a relatively high CC50 are preferred.
The MTT [3-(4,5-dimethylthiazol-2-yl)-2,5 diphenyl tetrazolium bromide) assay is based on cleavage of tetrazolium bromide by metabolically active cells, resulting in a highly quantitative blue color. This assay has been previously described (1) but has been optimized for the purposes of the testing reported herein.
The H9 cell line (2), an established human lymphoma suspension cell line grown in RPMI 1640 supplemented with 10% fetal bovine serum, is used as the target cell line in the assay. Cells (100µL) are plated in microtest plate wells at a concentration of 10^5 cells per mL in the presence of varying concentrations of inhibitor. The cells are incubated at 37°C in a humidified CO2 incubator. Five days later, 20µL of MTT (5mg/mL in RPMI 1640, sonicated, 0.2 micron filtered, and stored at 4°C) is added to each well. After 4 hours additional incubation at 37°C, 60µL of Triton-X is added to each well and thoroughly mixed to aid the solubilization of the crystals. Absolute ethanol (5µL) is added to each well and the resulting mixture is incubated for 30 minutes at 60°C and immediately read on a plate reader (Dynatech) at a wavelength of 570nm.
Data from this assay are used to generate a nonlinear regression analysis which yields an CC50.

`CCCN1c2nc(-c3cn[nH]c3)ccc2NC(=O)c2cccnc21` [Example 4, 5,11-Dihydro-11-n-propyl-2-(4-pyrazolyl)-6H-dipyrido[3,2-b:2',3'-e][1,4]diazepin-6-one]: the inhibition at 1 µM at HIV-1 RT Y181C stood at 54%; in data set [1] it was 60%. The “Reverse Transciptase Assay % inhibition (1 µM) Y188L” value at HIV-1 RT Y188L is recorded as 29%. The compound also yielded a CC50 at 120 h in “MTT assay (cytotoxicity)” of more than 60 µM.

Regarding `CCN1c2ncccc2C(=O)N(C)c2ccc(-c3c[nH]c4ccccc34)nc21` [Example 28, 5,11-Dihydro-11-ethyl-2-(indol-3-yl)-5-methyl-6H-dipyrido[3,2-b:2',3'-e][1,4]diazepin-6-one], the values for the inhibition at 1 µM (on HIV-1 RT Y181C; in data set [1]) were 93% and 96%, respectively. In addition, the “Reverse Transciptase Assay % inhibition (1 µM) Y188L” value on HIV-1 RT Y188L amounted to 72%. The same compound yielded a CC50 at 120 h in “MTT assay (cytotoxicity)” of more than 15 µM.

Regarding `CCN1c2ncccc2C(=O)N(C)c2ccc(-c3cnn(CC)c3)nc21` [Example 2, 5,11-Dihydro-11-ethyl-2-(1-ethylpyrazol-4-yl)-5-methyl-6H-dipyrido[3,2-b:2',3'-e][1,4]-diazepin-6-one], the inhibition at 1 µM on HIV-1 RT Y181C turned out to be 72%; in data set [1] it was 67%. Also, at HIV-1 RT Y188L, the “Reverse Transciptase Assay % inhibition (1 µM) Y188L” value amounted to 13%. The compound further showed a CC50 at 120 h in “MTT assay (cytotoxicity)” of more than 60 µM.

For the compound `CCN1c2ncccc2C(=O)N(C)c2ccc(-c3c[nH]c(C(N)=O)c3)nc21` [Example 22, 2-(2-Carbamylpyrrol-4-yl)-5,11-dihydro-11-ethyl-5-methyl-6H-dipyrido[3,2-b:2',3'-e][1,4]-diazepin-6-one], the inhibition at 1 µM on HIV-1 RT Y181C was found to be 72%; in data set [1], 76%. Moreover, the “Reverse Transciptase Assay % inhibition (1 µM) Y188L” value on HIV-1 RT Y188L is given as 30%.

For the compound `CCN1c2ncccc2C(=O)N(C)c2ccc(-c3ccn(C)c3)nc21` [Example 20, 5,11-Dihydro-11-ethyl-5-methyl-2-(1-methylpyrrol-3-yl)-6H-dipyrido[3,2-b:2',3'-e][1,4]-diazepin-6-one], the inhibition at 1 µM on HIV-1 RT Y181C is 36%; in data set [1] it was 65%. Further, the “Reverse Transciptase Assay % inhibition (1 µM) Y188L” value on HIV-1 RT Y188L came out at 26%.

Consider `CCN1c2ncccc2C(=O)N(C)c2ccc(-c3cccn3C(C)=O)nc21` [Example 14, 2-(1-Acetylpyrrol-2-yl)-5,11-dihydro-11-ethyl-5-methyl-6H-dipyrido[3,2-b:2',3'-e][1,4]-diazepin-6-one], for which the inhibition at 1 µM on HIV-1 RT Y181C was found to be 51%; in data set [1] it was 74%. In addition, on HIV-1 RT Y188L, the “Reverse Transciptase Assay % inhibition (1 µM) Y188L” value amounted to 23%.

With `CCCN1c2ncccc2C(=O)N(C)c2ccc(-c3cn[nH]c3)nc21` [Example 5, 5,11-Dihydro-5-methyl-11-n-propyl-2-(4-pyrazolyl)-6H-dipyrido[3,2-b:2',3'-e][1,4]diazepin 6-one], the inhibition at 1 µM (at HIV-1 RT Y181C; in data set [1]) was 90% throughout. Also, the “Reverse Transciptase Assay % inhibition (1 µM) Y188L” value on HIV-1 RT Y188L amounted to 63%. In the data set “MTT assay (cytotoxicity)”, this compound registered a CC50 at 120 h of more than 60 µM.

On to `CCN1c2ncccc2C(=O)N(C)c2ccc(-c3cn[nH]c3)nc21` [Example 26, 5,11-Dihydro-11-ethyl-5-methyl-2-(4-pyrazolyl)-6H-dipyrido[3,3-b:2',3'-e][1,4]diazepine-6-one], for which the “Reverse Transciptase Assay % inhibition (1 µM) Y181C” value at HIV-1 RT Y181C worked out at 33%. Further, on HIV-1 RT Y188L (1 µM), the “Reverse Transciptase Assay % inhibition (1 µM) Y188L” value is 20%. Moreover, the “Reverse Transciptase Assay % inhibition (1 µM) WT” value in data set [1] came out at 64%.
